Results reported in US20220184055A1, “CHIAURANIB FOR TREATMENT OF SMALL CELL LUNG CANCER” (SHENZHEN CHIPSCREEN BIOSCIENCES CO., LTD., priority 2019, published 2022).
Entries after “also recorded” stand apart in the source; their conditions may differ.

Tests used:
[1] = tested on: advanced solid tumors; experiment: Phase I clinical trial of chiauranib in patients with advanced solid tumors; type: in vivo, human; conditions: for objective remission (complete remission CR and partial remission PR): 18 patients, 8 tumor types, oral once daily 10-65 mg dose escalation, RECIST 1.1
Experimental: Test drug: chiauranib capsules, strength: 5 mg, 25 mg, produced by Shenzhen Chipscreen Biosciences, Co., Ltd.
Dosage regimen: The starting dose was 10 mg/day. After the starting dose, according to the modified Fibonacci method, the patients were enrolled in order from low dose to high dose, and the set dose groups were 20 mg, 35 mg, 50 mg, 65 mg . . . dose groups, respectively, until the MTD was determined.
Chiauranib capsules were administered orally, once a day in the morning. Before knowing the analysis data of the effects of food on bioavailability, the drugs were administered on empty stomach.
Number of cases: 18 cases were enrolled.
The prescribed dose of Chiauranib capsules was administered orally on empty stomach once every day, and every 28 days was a treatment cycle; there was no stopping interval during the treatment cycles, and all enrolled patients received the test drug treatment until the disease progressed or intolerable toxicity appeared.
Efficacy evaluation: The clinical benefits of tumor treatment include:
Judgment criteria: The efficacy was evaluated according to the RECIST version 1.1 (2009) standard of solid tumors.
(§1) Safety assessment: physical examination, vital signs, ECOG physical score, blood routine, urine routine, 12-lead ECG, blood biochemistry, electrolytes, coagulation function, myocardial enzymes, troponin, TSH, FT3, FT4, amylase, echocardiography, 24-hour urine protein quantification (if necessary), and adverse events were included.
A total of 18 patients were enrolled in the trial, all of which were included in the FAS, SS, and PPS analysis sets. Among the 18 patients, 7 cases (38.9%) had colorectal cancer, 5 cases (27.8%) had non-small cell lung cancer, and 1 case each for gastric cancer, ovarian cancer, thyroid papillary carcinoma, diffuse large B-cell lymphoma, fibrosarcoma, and poorly differentiated renal carcinoma.

[2] = tested on: recurrent and refractory small cell lung cancer; experiment: Phase Ib clinical trial of chiauranib alone in recurrent and refractory small cell lung cancer; type: in vivo, human; conditions: 50 mg/day QD oral
Experimental: Test drug: Chiauranib capsules, strength: 5 mg, 25 mg, produced by Shenzhen Chipscreen Biosciences, Co., Ltd.
Dosage regimen: Chiauranib capsules were administered at 50 mg/day, QD (no adjustments to body weight or body surface area), on an empty stomach every morning with water, swallowing whole capsules intact. Continuous administration for 28 days constituted a treatment cycle, and there was no interval between treatment cycles.
Number of cases: 25 cases were enrolled.
The test subjects were administered with 50 mg of Chiauranib capsules orally once a day, every 28 days as a treatment cycle, and there was no stopping interval during the treatment cycles. Throughout the trial period, all subjects continued treatment until any of the following conditions (whichever occurred first) occurred: disease progression, intolerable toxic response, death, withdrawal of informed consent, or loss to follow-up.
Efficacy evaluation: According to the RECIST1.1 standard, evaluation was performed in the baseline period and at the 4th weekend after treatment, and repeated every 8 weeks until the disease progressed. Tumor imaging examinations include CT or MRI of the neck, chest, whole abdomen, and pelvis. Examinations of other parts were carried out when necessary based on clinical indications. The same techniques and methods should be employed for the baseline of the lesion and follow-up assessment and measurement.
as §1, with “ECOG fitness” for “ECOG physical”, “12-lead ECG” for “12-lead ECG,”

[3] = tested on: SCLC; conditions: combined with best supportive treatment; cited from earlier work
[4] = 20 patients with efficacy evaluation

SMILES | PR, number of patients ([1]; 8 common tumors, 18 patients evaluated) | objective remission (complete remission CR and partial remission PR) [1] | objective remission (complete remission CR and partial remission PR) ([1]; listed as Chiauranib) | objective response rate (ORR) / PR (%) [2, 4] | patients whose target lesions were reduced by more than 30% from baseline, number [2, 4] | patients whose target lesions were reduced by more than 30% from baseline, percent [2, 4] | best efficacy evaluation PR, number of patients ([2]; 20 patients with efficacy evaluation of 25 enrolled, RECIST 1.1) | overall survival, quality of life and improvement of symptoms versus best supportive treatment alone [3]
COc1ccc2c(Oc3ccc4c(C(=O)Nc5ccccc5N)cccc4c3)ccnc2c1 [chiauranib, N-(2-aminophenyl)-6-(7-methoxyquinoline-4-oxo)-1-naphthylamide] | 0 | no objective remission was observed; also recorded: no patients with objective remission were observed | no cases with objective remission were observed | 20% | 5 patients | 25% | 4 patients | 
CC[C@@]1(O)C(=O)OCc2c1cc1n(c2=O)Cc2cc3c(CN(C)C)c(O)ccc3nc2-1 [topotecan] |  |  |  |  |  |  |  | significantly better
